How the values were obtained:
[1] = Serum glucose concentration on profiling days; conditions: Regimen A, Day 11
From the text: (§1) During the main profiling days, blood was sampled at each ZCG time point for the determination of serum glucose and potassium concentrations.

healthy subjects [2] = experiment: Digital 12-lead electrocardiography (HR, QT, QTc); type: in vivo, human
Method: Digital 12-lead ECGs were recorded immediately after each ZCG recording. Tracings were analysed off-study by regimen-blinded qualified analysts, using previously reported methodology. For each time point, three cycles were measured with regard to the RR, PQ and QT-intervals [ms]. The means of the three measurements were used for the calculation of HR and HR-corrected QTc intervals, according to Bazett's equation (QTcB = QT/RR^1/2) and Fridericia's equation (QTcF = QT/RR^1/3).

healthy subjects [3] = experiment: Transthoracic impedance cardiography (ZCG) and systolic time intervals in healthy men; oral roflumilast 500 μg once daily, inhaled formoterol 24 μg twice daily; conditions: Regimen A
Method: For Regimen A, subjects received 500 μg oral roflumilast once daily (daily dose: one tablet of roflumilast 500 μg) from the morning of Day 2 to the morning of Day 18. […] For Regimen B, subjects received 24 μg formoterol for oral inhalation delivered by a DPI device (Foradil® P) twice daily, once in the morning and once in the evening from the morning of Day 2 to the evening of Day 18.
Cardiovascular effects were evaluated non-invasively by means of ECGs (cardiac rhythm, intra-cardiac conduction and ventricular repolarisation), oscillometric blood pressure and transthoracic impedance cardiography (ZCG; systolic time intervals, contractility indices and estimates of stroke volume and cardiac output). Cardiovascular assessments (oscillometric blood pressure, pulse rate, 12-lead ECG, and three-lead ZCG) were recorded before dosing and at 10, 20, 40 and 60 minutes, and at 2, 3, 4, 5, 6, 7 and 8 hours after morning dosing. […] All cardiovascular measurements were carried out after the subjects had been recumbent for at least 10 minutes; they generally stayed in bed from 1 hour before until 8 hours after morning dosing.
Systolic time intervals (STIs) and ZCG estimates of the systolic cardiac pump performance were derived from the simultaneous registration of a one-lead ECG, a phonocardiogram (PCG), and the rate of change of the transthoracic impedance (dZ/dt) to an AC current applied through the thoracic cage (CARDIODYNAGRAPH; Diefenbach GmbH, Wiesbaden, Germany). Tracings were captured and stored digitally during the study and subsequently analysed after the study by displaying the analogue ECG, PCG and ZCG signals on a computer screen. The relevant signal amplitudes and time intervals were delineated manually by operator-steered cursors; measurements were made for at least 10 artefact-free consecutive cardiac cycles. From these tracings, the following variables were derived by direct measurement: RR interval (ms), total electromechanic systole (QS2 [ms]), ventricular ejection time (VET [ms]), baseline transthoracic impedance (Z0 [Ω]), and maximum negative velocity of transthoracic impedance changes during the cardiac cycle (dZ/dtmax [Ω/s]). These variables were analysed for the 10 cycles and their means were used in the calculations of the following variables: heart rate (HR [bpm]), pre-ejection period (PEP [ms] = QS2 - VET), HR-corrected STIs (STIc and STIi according to Weissler et al.), ZCG estimates of stroke volume (SV [mL] according to Kubicek's equation [37] using the equation of Geddes and Sadler for the specific resistance of blood), cardiac output (CO [mL/min]), and total peripheral resistance (TPR [dyn.s.cm^-5]). For the latter variable, the mean blood pressure (MBP [mmHg]) was used as calculated according to Wezler and Böger from the systolic blood pressure (mmHg) and the diastolic blood pressure (mmHg).
ZCG analysis was carried out by a single analyst who was blinded with regard to subject, study regimen, profiling day within regimen, and time during the day.

[4] = Serum potassium concentration on profiling days; conditions: Regimen A, Day 11
From the text: as §1

O=C(Nc1c(Cl)cncc1Cl)c1ccc(OC(F)F)c(OCC2CC2)c1 [Roflumilast, 3-cyclopropylmethoxy-N-(3,5-dichloropyridin-4-yl)-4-(difluoromethoxy)benzamide]
median pre-dose serum glucose [1]: 4.75 mmol/L | HR (ECG) (healthy subjects [2]; 12-lead ECG): slight increase | QTc values, uncorrected or corrected using Bazett's or Fridericia's formula (healthy subjects [2]; 12-lead ECG): no clinically relevant changes | duration of the QT interval (healthy subjects [2]; 12-lead ECG): decrease | QT/QTc intervals (healthy subjects [2]; all subjects, all regimens): below 450 ms | CO, Day 1-matched post-dose maximum dmax (δ), median (healthy subjects [3]; Day 11 (R)): 1.6 L/min | CO, Day 1-matched post-dose minimum dmin (δ), median (healthy subjects [3]; Day 11 (R)): -1.7 L/min | CO, untransformed post-dose maximum dmax (U), median (healthy subjects [3]; Day 11 (R)): 10.6 L/min | CO, untransformed post-dose minimum dmin (U), median (healthy subjects [3]; Day 11 (R)): 8.3 L/min | CO, untransformed pre-dose morning value, median (healthy subjects [3]; Day 11 (R)): 9.1 L/min | HR, Day 1-matched post-dose maximum dmax (δ), median (healthy subjects [3]; Day 11 (R)): 9 bpm | HR, Day 1-matched post-dose minimum dmin (δ), median (healthy subjects [3]; Day 11 (R)): -4 bpm | HR, untransformed post-dose maximum dmax (U), median (healthy subjects [3]; Day 11 (R)): 64 bpm | HR, untransformed post-dose minimum dmin (U), median (healthy subjects [3]; Day 11 (R)): 54 bpm | HR, untransformed pre-dose morning value, median (healthy subjects [3]; Day 11 (R)): 63 bpm | PEP, Day 1-matched post-dose maximum dmax (δ), median (healthy subjects [3]; Day 11 (R)): 25 ms | PEP, Day 1-matched post-dose minimum dmin (δ), median (healthy subjects [3]; Day 11 (R)): -27 ms | PEP, untransformed post-dose maximum dmax (U), median (healthy subjects [3]; Day 11 (R)): 121 ms | PEP, untransformed post-dose minimum dmin (U), median (healthy subjects [3]; Day 11 (R)): 86 ms | PEP, untransformed pre-dose morning value, median (healthy subjects [3]; Day 11 (R)): 94 ms | QS2, Day 1-matched post-dose maximum dmax (δ), median (healthy subjects [3]; Day 11 (R)): 19 ms | QS2, Day 1-matched post-dose minimum dmin (δ), median (healthy subjects [3]; Day 11 (R)): -34 ms | QS2, untransformed post-dose maximum dmax (U), median (healthy subjects [3]; Day 11 (R)): 454 ms | QS2, untransformed post-dose minimum dmin (U), median (healthy subjects [3]; Day 11 (R)): 410 ms | QS2, untransformed pre-dose morning value, median (healthy subjects [3]; Day 11 (R)): 423 ms | TPR, Day 1-matched post-dose maximum dmax (δ), median (healthy subjects [3]; Day 11 (R)): 126 dyn.s.cm^-5 | TPR, Day 1-matched post-dose minimum dmin (δ), median (healthy subjects [3]; Day 11 (R)): -128 dyn.s.cm^-5 | TPR, untransformed post-dose maximum dmax (U), median (healthy subjects [3]; Day 11 (R)): 934 dyn.s.cm^-5 | TPR, untransformed post-dose minimum dmin (U), median (healthy subjects [3]; Day 11 (R)): 733 dyn.s.cm^-5 | TPR, untransformed pre-dose morning value, median (healthy subjects [3]; Day 11 (R)): 838 dyn.s.cm^-5 | dZ/dt, Day 1-matched post-dose maximum dmax (δ), median (healthy subjects [3]; Day 11 (R)): 0.28 Ω/s | dZ/dt, Day 1-matched post-dose minimum dmin (δ), median (healthy subjects [3]; Day 11 (R)): -0.10 Ω/s | dZ/dt, untransformed post-dose maximum dmax (U), median (healthy subjects [3]; Day 11 (R)): 1.93 Ω/s | dZ/dt, untransformed post-dose minimum dmin (U), median (healthy subjects [3]; Day 11 (R)): 1.56 Ω/s | dZ/dt, untransformed pre-dose morning value, median (healthy subjects [3]; Day 11 (R)): 1.67 Ω/s | CO, dmax (U), point estimate (95% CI) of difference between days (healthy subjects [3]; Day 11-Day 1): 0.2 (-1.1 to 1.4) L/min | CO, dmin (U), point estimate (95% CI) of difference between days (healthy subjects [3]; Day 11-Day 1): -0.4 (-1.2 to 0.4) L/min | CO, untransformed pre-dose morning value, point estimate (95% CI) of difference between days (healthy subjects [3]; Day 11-Day 1): -0.6 (-1.7 to 0.5) L/min | HR, dmax (U), point estimate (95% CI) of difference between days (healthy subjects [3]; Day 11-Day 1): 3 (-4 to 6) bpm | HR, dmin (U), point estimate (95% CI) of difference between days (healthy subjects [3]; Day 11-Day 1): 4 (1 to 7) bpm | HR, untransformed pre-dose morning value, point estimate (95% CI) of difference between days (healthy subjects [3]; Day 11-Day 1): 3 (-5 to 8) bpm | PEP, dmax (U), point estimate (95% CI) of difference between days (healthy subjects [3]; Day 11-Day 1): 3 (-7 to 11) ms | PEP, dmin (U), point estimate (95% CI) of difference between days (healthy subjects [3]; Day 11-Day 1): 0 (-9 to 13) ms | PEP, untransformed pre-dose morning value, point estimate (95% CI) of difference between days (healthy subjects [3]; Day 11-Day 1): -3 (-17 to 10) ms | QS2, dmax (U), point estimate (95% CI) of difference between days (healthy subjects [3]; Day 11-Day 1): -1 (-11 to 11) ms | QS2, dmin (U), point estimate (95% CI) of difference between days (healthy subjects [3]; Day 11-Day 1): -9 (-21 to 8) ms | QS2, untransformed pre-dose morning value, point estimate (95% CI) of difference between days (healthy subjects [3]; Day 11-Day 1): -10 (-21 to 2) ms | TPR, dmax (U), point estimate (95% CI) of difference between days (healthy subjects [3]; Day 11-Day 1): 47 (-124 to 178) dyn.s.cm^-5 | TPR, dmin (U), point estimate (95% CI) of difference between days (healthy subjects [3]; Day 11-Day 1): -18 (-96 to 43) dyn.s.cm^-5 | TPR, untransformed pre-dose morning value, point estimate (95% CI) of difference between days (healthy subjects [3]; Day 11-Day 1): 14 (-98 to 121) dyn.s.cm^-5 | dZ/dt, dmax (U), point estimate (95% CI) of difference between days (healthy subjects [3]; Day 11-Day 1): -0.05 (-0.25 to 0.15) Ω/s | dZ/dt, dmin (U), point estimate (95% CI) of difference between days (healthy subjects [3]; Day 11-Day 1): 0.03 (-0.18 to 0.20) Ω/s | dZ/dt, untransformed pre-dose morning value, point estimate (95% CI) of difference between days (healthy subjects [3]; Day 11-Day 1): -0.06 (-0.29 to 0.16) Ω/s | effect on cardiovascular function (ZCG/STI variables) (healthy subjects [3]; roflumilast alone): little effect | median pre-dose serum potassium level [4]: 4.16 mmol/L
